Measured values published in US6750208B1, “Medicine for treating apoptosis dysfunction containing oligosaccharides” (Laboratoires Goemar S.A., priority 1998, dated 2004).

Test system: cells as in Example 1, FasAb-induced apoptosis
Experiment: effect of I9 fractions on low dose FasAb-induced apoptosis (Example 3)
Type: cell-based
Details: 0.2 mg/ml simultaneously with 100 ng/ml FasAb of Euromedex origin; 24 hours of incubation
Description: The effect induced by various constituents of this mixture, in particular of fractions DP 2, DP 3, DP 4, DP 5 and DP 7, was tested.
The polymer constituting the raw material of I9 was also tested, as was the product named KIK (hexasaccharide of type kappa-iota-kappa).
For these experiments, the procedure was carried out as in Example 1, simultaneously introducing, on the one hand, 0.2 mg/ml of each of the abovementioned fractions of I9 and, on the other hand, 100 ng/ml of FasAb of Euromedex origin.
After 24 hours of incubation, the findings summarized below were made.

| Substance | stimulatory effect on FasAb-induced apoptosis |
| --- | --- |
| iota-carrageenan | active |
| iota-neocarradecaose [DP 5] | inactive |
| iota-neocarrahexaose [DP 3] | inactive |
| iota-neocarraletraose [DP 2] | inactive |
| iota-neocarraoctaose [DP 4] | inactive |
| oligo-iota-carrageenan [DP 7] | 50% |
